Read-outs that look alike come from different tables or passages of the source.
Key:
[1] = In vivo pharmacokinetic properties in mice (IV and PO); set-up: species or system C57BL/6J mice; details: mouse, in vivo; for Oral Administration (PO) AUC0-last / Oral Administration (PO) T1/2 / Oral Administration (PO) Tmax: 10 mg/kg
Procedure: (§1) The in vivo pharmacokinetic properties of compounds by both intravenous and oral administration were evaluated in male Sprague Dawley rats or C57BL/6J mice.
(§2) Animals were housed in cages with clean bedding. Certified rodent diet was provided. Water was available ad libitum. Environmental controls for the animal room were set to maintain a temperature of 22° C. to 25° C., humidity of 40-70% RH, and a 12-hour light/12-hour dark cycle. Normal healthy animals certified by the attending veterinarian were selected and acclimatized for minimum three days prior to initiation of study.
(§3) To evaluate pharmacokinetic properties of intravenous delivery, male Sprague Dawley rats were administered 2.00 mg compound/kg animal weight through the tail vein. The concentration of the compound in the plasma of the animals was evaluated at 0.083, 0.25, 0.5, 1, 2, 4, 8, 12 and 24 hr by taking blood samples from the cannulated jugular vein. For the C5Bl/6J mice, blood samples were collected through a capillary, guided in retro-orbital plexus.
[…] The concentration of compound in the plasma of the animals was evaluated at 0.25, 0.5, 1, 2, 4, 6, 8, 12 and 24 hr by taking blood samples from the cannulated jugular vein (rats) or through a capillary, guided in retro-orbital plexus (mice).

[2] = Plasma and liver compound levels in mice after oral administration; assay type: in vivo; details: 30 mpk; for concentration at 6 h / concentration at 24 h: mouse, 30 mg/kg
Procedure: (§4) The pharmacodynamic properties of selected compounds were evaluated in mice. The animals were housed in cages with clean bedding, and maintained and monitored for good health in accordance with Test Facility SOPs and at the discretion of the laboratory animal veterinarian. Certified rodent diet was provided. Food and water was available ad libitum. Environmental controls for the animal room were set to maintain a temperature of 22° C. to 25° C., humidity of 40-70% RH, and a 12-hour light/[…]. Normal healthy animals certified by the attending veterinarian were selected and acclimatized for minimum three days prior to initiation of study. Animals were identified with body markings.
(§5) Aliquots of the compounds being evaluated were weighed and triturated with 0.5% methylcellulose (with the addition of 5% N-methyl pyrrolidone when required to remove clumping, as for Z-806) to an appropriate dose concentration. Vials were labeled with the information about study number, test item, concentration and date of preparation. A description of appearance of formulation was recorded (e.g., color, turbidity, etc.). The composition of formulation vehicle was recorded. An aliquot of each dose solution was taken before the dosing began and after dosing was finished, and stored at approximately −20° C. or below for subsequent analysis. The animals were dosed orally through oral gavage needle, and time of dosing was recorded.
After dosing, the mice were anesthetized using gaseous anesthesia. Blood samples were collected through a capillary, guided in retro-orbital plexus, at 6 h or at 24 h. Approximately 100 uL of blood was collected from each mouse, in pre-labeled tubes. The collected blood was stored on ice prior to centrifugation. Blood samples were then centrifuged within 1 hour of collection to separate plasma. Centrifugation was conducted at 2500×g for 15 minutes at 4° C. The plasma was separated and transferred to pre-labeled micro-centrifuge tubes and promptly frozen at −80±10° C. until bioanalysis.
(§6) Liver Collection at 6 h or 24 h: Immediately after blood withdrawal for pharmacokinetic evaluation (at 6 or at 24 h), liver tissue was collected without perfusion. Animals were euthanized using carbon dioxide gas in a CO2 chamber. The whole blood was drained by cutting the both side jugular vein and abdominal aorta. The liver was separated out. All the liver samples were divided in two parts. The first part (200 mg approx.) was snap frozen using liquid nitrogen as soon as possible. These samples were immediately transferred to −80° C. for storage. The remaining part was weighed and used for bioanalysis.

[3] = In vivo pharmacokinetic properties in rats (IV and PO); set-up: species or system male Sprague Dawley rats
Procedure: as §1, §2
Surgical Procedure for Jugular Vein Cannulation of Rats: Rats were anaesthetized with a single dose of ketamine 50 mg/kg i.p.+xylazine 6 mg/kg i.p. The right jugular vein was exposed, a loose ligature was placed caudally, and the cranial end of vein was ligated. A small incision was made between the ligatures into which the catheter (polyethylene 50 tubing of internal diameter 0.58 mm and outer diameter 0.96 mm) was inserted. The catheter was secured in place by tying the loose ligature around the catheterized vessel. A small incision was made in the scapular region to serve as the exit site of the catheter. The catheter was subcutaneously tunneled and exteriorized through scapular incision. A stay suture was placed in the scapular area. Patency was tested, and catheter was filled with a locking solution (heparinized saline) and sealed with a stainless steel plug. The incision was then sutured with sterile suturing material. Anti-septic solution was applied to the sutured site and animal was placed back in the home cage.
as §3
To evaluate pharmacokinetic properties of oral delivery, rats (male Sprague Dawley rats) or mice (C5Bl/6J) were administered 10 mg compound/kg animal weight by mouth. The concentration of compound in the plasma of the animals was evaluated at 0.25, 0.5, 1, 2, 4, 6, 8, 12 and 24 hr by taking blood samples from the cannulated jugular vein (rats) or through a capillary, guided in retro-orbital plexus (mice).

[4] = Log D by octanol/aqueous buffer partitioning; assay type: physicochemical; details: pH 7.4, 1-octanol/buffer
Procedure: The Log D of selected compounds was evaluated by octanol/aqueous buffer partitioning. 500 μL of organic phase (1-octanol) was added to each well of a 2 mL deep well plate, followed by 500 μL of buffer and 15 μL of test compound in DMSO (0.15 mM). The plate was vortexed for 10 seconds and incubated at room temperature for 1 hr on a plate shaker at 200 rpm. After incubation, the samples were allowed to equilibrate for 20 min and then centrifuged at 4000 rpm for 30 min for complete phase separation. The distribution of test compound in buffer and octanol phase was analyzed by HPLC-UV. Log D=Log (Area of Octanol/Area of Buffer).

[5] = test system: liver gene expression (ACACA, ACLY, FASN, LSS, PNPLA3); test: Liver gene expression in mice after oral administration; assay type: in vivo; details: 30 mpk, vs vehicle
Procedure: as §4, §5, §6
RNA Processing and Gene Expression Analysis: Liver Tissue RNA was harvested with the RNEasy kit and 20-100 ng used to synthesize cDNA with random primers following the manufacturer's protocol. Quantitative PCR was performed on 1 pg to 100 ng cDNA for the following genes: ACACA, ACLY, FASN, LSS, PNPLA3. Gene expression levels were determined using ΔΔCT method comparing treated to vehicle treated samples as a baseline, and fold change calculated. The average value for all 5 genes above was averaged and termed to Total Fold Change The results from this evaluation are presented in Table 8.

## CC(C)OC(=O)Nc1ccc(-c2cncc(-c3ccnc(C(C)(C)C)c3)c2)c(Cl)c1 [Compound Z-774]
[1]
  % F (Bioavailability of oral delivery): 16%
[1]; iv, 2 mg/kg
  Intravenous Delivery (IV) AUC0-last: 1780 ng·h/mL
  Intravenous Delivery (IV) CL: 18.5 mL/min/kg
  Intravenous Delivery (IV) T1/2: 5.31 h
  Intravenous Delivery (IV) Vd: 8.51 L/kg
[1]; po
  Oral Administration (PO) AUC0-last: 1380 ng·h/mL
  Oral Administration (PO) T1/2: 6.79 h
  Oral Administration (PO) Tmax: 0.5 h
[2]
  Liver ng/mg (6 h): >1000 ng/mg
  Plasma ng/mL (6 h): 100 to 1000 ng/mL
  Liver ng/mg 24 h: >1000 ng/mg
  Plasma ng/mL (24 h): 100 to 1000 ng/mL
[3]; IV, 2 mg/kg
  Intravenous Delivery (IV) CL: 15.7 mL/min/kg
  Intravenous Delivery (IV) T1/2: 5.92 h
  Intravenous Delivery (IV) Vd: 7.97 L/kg
[3]; PO 10 mg/kg vs IV 2 mg/kg
  % F (Bioavailability of oral delivery): 5.8%
[3]; PO, 10 mg/kg
  Oral Administration (PO) AUC0-last: 604
  Oral Administration (PO) T1/2: 3.74 h
  Oral Administration (PO) Tmax: 0.333 h
[4]
  LogD: 4.12
[5]
  Total Gene FC Time (6 h): ++ (0.51-0.7509 = ++)
  Total Gene FC Time (24 h): +++ (0-0.509 = +++)

## CC1(O)CCN(C(=O)c2ccc(-c3cncc(-c4ccnc(C(C)(C)C)c4)c3)c(Cl)c2)CC1 [Compound Z-780]
[1]
  % F (Bioavailability of oral delivery): 33%
[1]; iv, 2 mg/kg
  Intravenous Delivery (IV) AUC0-last: 913 ng·h/mL
  Intravenous Delivery (IV) CL: 36.3 mL/min/kg
  Intravenous Delivery (IV) T1/2: 2.02 h
  Intravenous Delivery (IV) Vd: 6.33 L/kg
[1]; po
  Oral Administration (PO) AUC0-last: 1510 ng·h/mL
  Oral Administration (PO) T1/2: 1.24 h
  Oral Administration (PO) Tmax: 0.25 h
[2]
  Liver ng/mg (6 h): >1000 ng/mg
  Plasma ng/mL (6 h): 100 to 1000 ng/mL
  Liver ng/mg 24 h: >100 ng/mg
  Plasma ng/mL (24 h): <100 ng/mL
[3]; IV, 2 mg/kg
  Intravenous Delivery (IV) CL: 16.7 mL/min/kg
  Intravenous Delivery (IV) T1/2: 1.14 h
  Intravenous Delivery (IV) Vd: 1.64 L/kg
[3]; PO 10 mg/kg vs IV 2 mg/kg
  % F (Bioavailability of oral delivery): 29%
[3]; PO, 10 mg/kg
  Oral Administration (PO) AUC0-last: 2989
  Oral Administration (PO) T1/2: 0.92 h
  Oral Administration (PO) Tmax: 0.75 h
[4]
  LogD: 3.76
[5]
  Total Gene FC Time (6 h): + (>0.751 = +)
  Total Gene FC Time (24 h): ++ (0.51-0.7509 = ++)

## O=C(c1ccc(-c2cncc(-c3ccnc4c3OCCO4)c2)c(Cl)c1)N1CCC(O)CC1 [Compound Z-806, (3-chloro-4-(5-(2,3-dihydro-[1,4]dioxino[2,3-b]pyridin-8-yl)pyridin-3-yl)phenyl)(4-hydroxypiperidin-1-yl)methanone]
[1]; C57BL/6J
  bioavailability: 58%
[1]; C57BL/6J, iv, 2 mg/kg
  AUC(0-t): 1540 ng·h/mL
  Vd: 8.91 L/kg
  clearance: 21 mL/min/kg
  half-life: 4.89 h
[1]; C57BL/6J, po, 3 mg/kg
  AUC(0-t): 1370 ng·h/mL
  Tmax: 0.25 h
  half-life: 3.51 h
[2]; liver, read-out: Liver ng/mg (6 h)
  concentration at 6 h: > 1e+06 ng/g
[2]; liver, read-out: Liver ng/mg 24 h
  concentration at 24 h: > 1e+06 ng/g
[2]; plasma, read-out: Plasma ng/mL (6 h)
  concentration at 6 h: > 1000 ng/mL
[2]; plasma, read-out: Plasma ng/mL (24 h)
  concentration at 24 h: > 1000 ng/mL
[3]; male, Sprague Dawley, rat, plasma, 10 mg/kg, heading: Oral Administration AUC0-last, PO, 10 mg/kg
  AUC(0-t): 272 ng·h/mL
[3]; male, Sprague Dawley, rat, plasma, IV, 2 mg/kg, read-out: Intravenous Delivery (IV) AUC0-last
  AUC(0-t): 2630 ng·h/mL
[3]; male, Sprague Dawley, rat, plasma, IV, 2 mg/kg, read-out: Intravenous Delivery (IV) CL
  clearance: 12.8 mL/min/kg
[3]; male, Sprague Dawley, rat, plasma, IV, 2 mg/kg, read-out: Intravenous Delivery (IV) T1/2 (converted)
  half-life: 2.03 h
[3]; male, Sprague Dawley, rat, plasma, IV, 2 mg/kg, read-out: Intravenous Delivery (IV) Vd
  Vd: 2.26 L/kg
[3]; male, Sprague Dawley, rat, plasma, PO 10 mg/kg vs IV 2 mg/kg, read-out: % F (Bioavailability of oral delivery)
  bioavailability: 2.1%
[3]; male, Sprague Dawley, rat, plasma, PO, 10 mg/kg, read-out: Oral Administration (PO) T1/2 (converted)
  half-life: 2.5 h
[3]; male, Sprague Dawley, rat, plasma, PO, 10 mg/kg, read-out: Oral Administration (PO) Tmax
  Tmax: 0.33 h
[4]; 1-octanol/aqueous buffer, read-out: LogD
  LogD: 1.98
[5]
  Total Gene FC Time (6 h): ++ (0.51-0.7509 = ++)
  Total Gene FC Time (24 h): +++ (0-0.509 = +++)

## COc1c(-c2ccnc(C(C)(C)C)c2)cncc1-c1ccc(C(=O)N2CCC(O)CC2)cc1Cl [Compound Z-840, (4-(2′-(tert-butyl)-4-methoxy-[3,4′-bipyridin]-5-yl)-3-chlorophenyl)(4-hydroxypiperidin-1-yl)methanone]
other
  melting point: 105 to 109 °C
